“Also recorded” adds a separate entry of the source. Numbered stars: 1 amine (or outer) side, 2 acyl side, 3 side chain; on linkers, the order of the positions; unused ones are H or OH. Peptide text beside a SMILES is read from it. CO = O=C([*:1])[*:2]
Target: T1, thermopsin, thermostable acid protease purified from Sulfolobus acidocaldarius culture medium (Sulfolobus acidocaldarius, UniProt P17118)
T1 construct: The purification of thermopsin, therefore, was carried out using culture media as starting material; endogenous in cells; host or cells: Sulfolobus acidocaldarius (natural producer); enzyme purified in-house from the culture medium, not recombinant
T1 sequence (P17118 42-340): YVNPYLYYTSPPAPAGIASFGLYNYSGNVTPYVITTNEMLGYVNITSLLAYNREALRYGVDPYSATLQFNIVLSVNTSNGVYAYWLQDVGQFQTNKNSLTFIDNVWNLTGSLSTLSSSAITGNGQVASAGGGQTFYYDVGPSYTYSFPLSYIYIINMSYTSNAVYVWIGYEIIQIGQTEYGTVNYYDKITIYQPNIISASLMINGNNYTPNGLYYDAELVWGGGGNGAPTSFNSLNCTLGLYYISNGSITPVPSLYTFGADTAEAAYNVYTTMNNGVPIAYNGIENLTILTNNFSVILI
Experiment: Effects of proteinase inhibitors on thermopsin proteolytic activity (14C-methylated hemoglobin assay)
Format: biochemical
Conditions: no concentration stated; see Table II
Method: Proteolytic activity is routinely assayed using ^14 C-methylated bovine hemoglobin as substrate, as prepared according to the method of Lin, et al., J. Biol. Chem., (1989, in press). The assay mixture, containing 0.51% hemoglobin substrate and thermopsin in 0.1 ml of 0.1M sodium formate, pH 3.2, is placed in an Eppendorf tube. After incubation at 80° C. for a period of time between 5 to 30 min, depending on the level of activity of thermopsin used, an aliquot of 0.1 ml of 10% trichloracetic acid is added to stop the reaction and precipitate the protein. After removal of the precipitate by centrifugation, the radioactivity of an aliquot of the clear supernate is determined in a scintillation counter.
The effect of various protease inhibitors on the activity of thermopsin was tested.
Thermopsin is preincubated with the indicated level of inhibitor in 0.1 M
phosphate buffer, pH 6.0, containing 1 mM EDTA and DTT at 37° C.
for 5 min. Sodium formate (pH 3.2) and ^14 CHemoglobin is then added
to a concentration as described above. The enzyme assay is then carried
out at 80° C. for 15 min. Enzyme activity is expressed as percent

Compound	effect of inhibitor on thermopsin activity (in words)
CCCCC(NC(=O)C=[N+]=[N-])C(=O)OC (racemic) [DAN, diazoacetyl-DL-norleucinemethlyester]	not inactivated; also recorded: no effect
CC(C)[C@H](NC(=O)[C@H](CCCNC(=N)N)NC(=O)N[C@@H](Cc1ccccc1)C(=O)O)C(=O)N[C@H](C=O)CCCNC(=N)N [Antipain, antipain] ({Phe-CO}-Arg-Val-Arg-aldehyde)	inhibited; also recorded: significant inhibition
CCN1C(=O)C=CC1=O [N-ethylmaleimide]	little effect
O=S(=O)(F)Cc1ccccc1 [PMSF, phenylmethylsulfonyl fluoride]	significantly inactivate; also recorded: significant inhibition
Cc1ccc(S(=O)(=O)N[C@@H](CCCCN)C(=O)CCl)cc1 [TLCK, N-p-Tosyl-1-lysine chloromethyl ketone]	much less effective
Cc1ccc(S(=O)(=O)N[C@@H](Cc2ccccc2)C(=O)CCl)cc1 [TPCK, N-Tosyl-L-phenylalanine chloromethyl ketone]	significantly inactivate; also recorded: significant inhibition

Reference: patent publication US5215907A, “Thermostable acid protease from sulfolobus acidocaldarius” (Oklahoma Medical Research Foundation, priority 1992, dated 1993)
